The values below come from patent US20070060646A1, “Acylhydrazone derivatives and the use thereof in the inhibition, regulation and/or modulation of kinase signal transduction” (priority 2003, published 2007).

Take `COc1cc(O)ccc1/C=N/NC(=O)Cc1cc(O)cc(O)c1` [compound 19]: the melting point is 246 °C (dec.).

The compound `COc1cc(O)ccc1/C=N/NC(=O)Cc1ccc(F)cc1` [compound 12] registered a melting point of 184 to 185 °C.

Take `COc1cc(O)ccc1/C=N/NC(=O)C(O)c1ccccc1` (stereo not shown) [compound 30]: the melting point was in the range of 217 to 218 °C.

`COc1cccc(CC(=O)N/N=C/c2ccc(OC(C)=O)cc2OC)c1` [compound 21] registered a melting point of 147 to 148 °C.

In turn, `COc1cccc(OCC(=O)N/N=C/c2ccc(O)cc2OC)c1` [compound 25] returned a melting point of 173 to 174 °C.

Regarding `O=C(Cc1cccc(F)c1)N/N=C/c1ccc(O)c(F)c1` [compound 20], the melting point lay within 193 to 194 °C.

In turn, `COc1cccc(CC(=O)N/N=C/c2c(C)cc(O)cc2C)c1` [compound 16] registered a melting point of 172 to 173 °C.

In turn, `COc1cc(O)ccc1/C=N/NC(=O)Cc1ccccc1F` [compound 41] yielded a melting point of 213 to 215 °C.

`COc1cc(O)ccc1/C=N/NC(=O)Cc1cccc(OS(C)(=O)=O)c1` [compound 35] showed a melting point of 132 °C.

As to `COc1cc(O)ccc1/C=N/NC(=O)Cc1ccc(O)cc1` [compound 6], the melting point was 224 °C.

Turning to `COc1cccc(CC(=O)N/N=C(\C)c2ccc(O)cc2OC)c1` [compound 18], the melting point lay in the range of 160 to 162 °C.

`COc1cc(O)ccc1/C=N/NC(=O)Cc1ccc(Cl)c(Cl)c1` [compound 7] yielded a melting point of 232 to 233 °C.

Compound `COc1cc(O)ccc1/C=N/NC(=O)Cc1ccccc1C` [compound 9] showed a melting point of 119 to 120 °C.

In turn, `COc1cccc(CCC(=O)N/N=C/c2ccc(O)cc2OC)c1` [compound 23] registered a melting point of 159 to 160 °C.

Take `COc1cc(O)ccc1/C=N/NC(=O)Cc1cccc(F)c1` [compound 14]: the melting point was in the range of 111 to 112 °C.

The compound `COc1cc(O)ccc1/C=N/NC(=O)Cc1ccccc1Cl` [compound 10] came in with a melting point of 134 to 135 °C.

Compound `COc1cccc(CC(=O)N/N=C/c2cc([N+](=O)[O-])ccc2O)c1` [compound 29] registered a melting point of 198 to 199 °C.

`COc1cc(O)ccc1/C=N/NC(=O)Cc1cccc(C(F)(F)F)c1` [compound 22] came in with a melting point of 203 to 204 °C.

`O=C(Cc1ccccc1)N/N=C/c1ccc(O)c(F)c1` [compound 5] gave a melting point of 207 °C.

The compound `COc1cc(O)ccc1/C=N/NC(=O)Cc1cccc(Br)c1` [compound 33] returned a melting point of 214 to 215 °C.

Turning to `CCOc1cc(O)ccc1/C=N/NC(=O)Cc1cccc(O)c1` [compound 38], the melting point was in the range of 190 to 192 °C.

Compound `COc1cccc(CC(=O)N/N=C/c2ccc(O)cc2OC)c1` [compound 4] had a melting point of 166 to 167 °C.

In turn, `COc1cccc(CC(=O)N/N=C/c2ccc(O)c(F)c2)c1` [compound 17] returned a melting point of 190 to 191 °C.

In turn, `COc1cc(O)ccc1/C=N/NC(=O)Cc1cccc([N+](=O)[O-])c1` [compound 26] displayed a melting point of 240 to 241 °C.

For the compound `COc1cccc(CC(=O)N/N=C/c2cc(Cl)ccc2O)c1` [compound 28], the melting point fell in the range of 178 to 179 °C.

Compound `COc1cc(O)ccc1/C=N/NC(=O)Cc1cccc(C)c1` [compound 8] yielded a melting point of 207 to 208 °C.

For `COc1cccc(CC(=O)N/N=C(\C)c2ccc(O)cc2)c1` [compound 34], the melting point is 162 to 164 °C.

In turn, `COc1cc(O)cc(C)c1/C=N/NC(=O)Cc1cccc(O)c1` [compound 40] gave a melting point of 194 to 195 °C.

Compound `COc1cccc(CC(=O)N/N=C/c2ccc(O)cc2O)c1` [compound 24] displayed a melting point of 205 to 206 °C.

Turning to `COc1cc(O)ccc1/C=N/NC(=O)Cc1cc(F)cc(F)c1` [compound 36], the melting point fell in the range of 224 to 225 °C.

For `Cc1cc(O)ccc1/C=N/NC(=O)Cc1cccc(O)c1` [compound 37], the melting point fell in the range of 203 to 204 °C.

`COc1cc(O)ccc1/C=N/NC(=O)Cc1ccc(F)cc1Cl` [compound 13] gave a melting point of 242 to 243 °C.

`COc1cc(O)ccc1/C=N/NC(=O)Cc1cccc(Cl)c1` [compound 11] returned a melting point of 121 to 122 °C.

In turn, `COc1cccc(CC(=O)N/N=C/c2ccc(O)cc2)c1` [compound 15] registered a melting point of 162 to 163 °C.

In general, melting point refers to the temperature of the solid-liquid transition.
